Among the data in patent publication US5798352A, “Antithrombotic amidinotetrahydropyridylalanine derivatives” (Pfizer Inc., priority 1995, dated 1998) are Ki values, retold here.

SMILES strings stand for the structures. Structures can show the parent of a compound that is named as a salt.

Experiment [1] concerns the target thrombin (Bos taurus, UniProt P00735). Description: Chromogenic assay, thrombin inhibition (substrate S2238). In kind it is biochemical. Conditions: in vitro; bovine thrombin; Ki calculated from substrate Km and IC50; pH 8.0, 30° C. The method, then: (§1) The biological activities of the compounds of the present invention were determined by the following test methods.
(§2) The inhibition of thrombin, trypsin, plasmin or factor Xa is measured in 96 well plate chromogenic assays. The percentage inhibition and IC50 are calculated from triplicate samples of an 8 concentration dose-response curve. From the substrate Km and IC50, the Ki for each inhibitor is calculated. All assays are carried out in a total incubation of 200 μl of 50 mM HEPES and 150 mM NaCl at pH 8.0, and all compound dilutions are preincubated with enzyme at room temperature for 15 minutes prior to addition of substrate. After 30 minutes incubation at 30° C., the O.D. is measured at […] in a 96 well plate reader. Thrombin activity is measured using bovine thrombin and S2238 (H-D-Phe-Pip-Arg-pNA), bovine pancreatic trypsin is assayed with S2222 (Benz-Isoleu-Glu-Gly-Arg-pNA), bovine plasma plasmin is assayed with Chromozym PL (Tosyl-Gly-Pro-Lys-pNA)and bovine fac or Xa is assayed in 50 mM Tris, 150 mM NaCl, pH 7.5 buffer with S2222.

The target of experiment [2] is T1, trypsin (Bos taurus, UniProt P00760).
T1 construct: from tissue; host or cells: bovine pancreas
T1 sequence (P00760 24-246): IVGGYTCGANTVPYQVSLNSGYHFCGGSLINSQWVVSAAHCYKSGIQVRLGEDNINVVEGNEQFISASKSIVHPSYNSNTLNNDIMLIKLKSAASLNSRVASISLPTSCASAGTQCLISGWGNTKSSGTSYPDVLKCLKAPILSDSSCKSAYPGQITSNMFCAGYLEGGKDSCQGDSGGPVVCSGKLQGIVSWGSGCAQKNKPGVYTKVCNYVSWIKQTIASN
The experiment can be described thus: Chromogenic assay, trypsin inhibition (substrate S2222). In kind it is biochemical. The settings on record: in vitro; bovine pancreatic trypsin; Ki calculated from substrate Km and IC50; pH 8.0, 30° C. Here is the method: as §1, §2

What is called Ki is the equilibrium dissociation constant of an inhibitor or competing ligand from its target. Regarding `C[C@@H]1CCN(C(=O)[C@H](CC2=CCCN(C(=N)N)C2)NS(=O)(=O)c2ccc3c(c2)CN(C)CC3)[C@H](C(=O)O)C1` [Example 5, 4(R)-Methyl-1-[N-(2-methyl-1,2,3,4-tetrahydroisoquinoline-7-sulphonyl)-3-(1-amidino-1,2,5,6-tetrahydro-3-pyridyl)-(S)-alanyl]piperidine-2(S-carboxylicacid dihydrochloride], the values for the Ki in experiment [1] and in experiment [2] were 1.9 nM and 2400 nM, respectively.
Regarding `C[C@H]1CCN(C(=O)[C@H](CC2=CCCN(C(=N)N)C2)NS(=O)(=O)c2ccc3c(c2)CN(C)CC3)[C@@H](C(=O)O)C1` [Example 6, 4(S)-Methyl-1-[N-(2-methyl-1,2,3,4-tetrahydroisoquinoline-7-sulphonyl)-3-(1-amidino-1,2,5,6-tetrahydro-3-pyridyl)-(S)-alanyl]piperidine-2(R)-carboxylic acid dihydrochloride], the Ki in experiment [1] was 9.9 nM; in experiment [2], 690 nM.
